Measured values published in US20230279379A1, “METHODS AND MICROFLUIDIC DEVICE FOR PRODUCING EXTRACELLULAR VESICLES” (THE BOARD OF TRUSTEES OF THE UNIVERSITY OF ILLINOIS, priority 2022, published 2023).
Entries after “also recorded” stand apart in the source; their conditions may differ. Where no end group is shown, it is not given here.

Tested on: Primary human MSCs
Assay: EV secretion per cell from MSCs on hydrogel substrates, nanoparticle tracking analysis
Type: cell-based
Details: for EV secretion vs vehicle: 3 μM MnCl2 during and after adhesion, elastic alginate-RGD hydrogels, soft and stiff
Procedure: Cell Seeding on Hydrogels. Hydrogel discs were placed in ultra-low binding polystyrene well plates (Corning) to ensure cells attach to hydrogels and not the plate surface. Hydrogels were washed with Hank's buffered salt solution (HBSS, Thermo Fisher Scientific) for at least 3 days before seeding cells. Cells were seeded at a low density (25 cells/mm^2). After seeding, hydrogels were washed thoroughly to remove unattached cells. Drug treatments of 3 μM MnCl2 (Thermo Fisher Scientific), 200 nM EMD 121974 sold under the tradename Cilengitide® (Cayman) and 5 μM CK869 (Cayman) were applied during and after cell adhesion to substrates. To evaluate the number of live cells seeded on substrates, cells were detached by incubating with a natural enzyme mixture with proteolytic and collagenolytic enzyme activity sold under the tradename ACCUTASE® Cell Detachment Solution (Innovative Cell Technologies, Inc.) for 10 minute at 37° C. Cells were then washed by centrifugation and directly added to HBSS containing calcein AM (1:2000; Biotium), ethidium bromide (1:2000; Thermo Fisher Scientific), and a predefined number of allophycocyanin (APC) beads (BD). After incubation at room temperature (RT) for 10 minutes, the samples were analyzed for live and dead cell number by flow cytometry.
Particle Size and Number Characterization. Particle size and number were obtained using Nanoparticle Tracking Analysis 3.2 (NTA) via NanoSight NS300 (Malvern) using a 405 nm laser. Samples were introduced by syringe pump at a rate 100 μL/min. Three thirty-second videos were acquired using camera level 14 followed by detection threshold 7. Camera focus, shutter, blur, minimum track length, minimum expected particle size and maximum jump length were set automatically by the software. Samples were diluted as needed to maintain particles per video from 100-2000. To ensure specificity, all samples were tested as compared to appropriate blank conditions.
To test the effect of substrate mechanics on EV secretion from MSCs, hydrogel substrates were engineered which were composed of alginate polymer conjugated with the cell adhesion peptide Arg-Gly-Asp (RGD) that binds primarily to αvβ3 and α5β1 integrins. Alginate-RGD hydrogels can be formed either covalently through adipic acid dihydrazide or physically through divalent cations, resulting in elastic or stress-relaxing hydrogels, respectively. For both types of hydrogels, elastic modulus (Young's modulus, E) of ˜3 kPa ‘soft’ and E ˜20 kPa ‘stiff’ were considered values that represent a physiologically relevant range of substrate elasticity for MSC mechanosensing, while E is ˜0.1 GPa for conventional plastic substrates. Primary human bone marrow MSCs were allowed to adhere to substrates for 24 hours followed by washout and collection of the serum-free conditioned medium from MSCs after 24 hours. After centrifugation of the medium at 10,000 g to remove cell, apoptotic, and larger particle fractions, particles remaining in the medium were analyzed by nanoparticle tracking analysis and normalized to the number of live adhered cells counted by flow cytometry (see Methods). MSCs were seeded at low density (˜25 cells/mm^2) to avoid potential effects from cell-cell interactions. […] Thus, focus was placed on the EVs remaining in the supernatant after the 10,000 g centrifugation. For these EVs, the particle size distribution remained similar across different substrates with median diameter ˜120 nm (FIG. 1B). […] Moreover, EVs from different substrates expressed similar levels of late endosomal markers CD63 and CD9. Importantly, levels of ribosomal RNA (rRNA) in particle preparations were similar across hydrogels or plastic substrates, and rRNA as a percentage of total RNA was lower than that found in untreated MSCs or particles derived from H2O2-treated apoptotic MSCs, ruling out apoptosis as a potential factor of increased EV secretion on the soft hydrogel. […]

## CC(C)[C@H]1C(=O)N[C@@H](CCCN=C(N)N)C(=O)NCC(=O)N[C@@H](CC(=O)O)C(=O)N[C@H](Cc2ccccc2)C(=O)N1C [EMD 121974]
200 nM EMD 121974 during and after adhesion, soft and stiff hydrogels
  EV secretion: significantly increased EV secretion on both soft and stiff hydrogels; also recorded: enhances EV secretion

## [Cl][Mn][Cl] [MnCl2]
  EV secretion vs vehicle: inhibits EV secretion
Listed as Mn^2+
  EV secretion vs vehicle: decreased to a greater extent on the soft hydrogel than the stiff hydrogel

## Cc1ccc2c(c1)C(=O)C1(O)CCN(c3ccccc3)C1=N2 (stereo not drawn) [blebbistatin]
50 μM blebbistatin, soft or stiff elastic alginate-RGD hydrogels
  exosome secretion: did not impact exosome secretion

## RGD: cell adhesion peptide, amino acid sequence GGGGRGDSP (SEQ ID NO:1), conjugated to hydrogel (also: conjugated to hydrogel)
FIG. 5
  EV secretion on decreasing the amount of RGD conjugated in hydrogels: significantly increases EV secretion
Decreasing RGD concentration from 0.8 to 0.16 mM, both soft and stiff hydrogels
  increase in EV secretion per cell: ~2 fold
